The values that follow come from US20170152245A1 (National Taiwan University, priority 2015, published 2017).

Where two headings read alike, the source gives them in different places.

Series [1] deals with human platelet suspension. As to the kind of experiment: Collagen-induced platelet aggregation in human platelet suspension. Conditions: collagen 10 μg/ml; for IC50: Platelet, washed human platelets, read-out: IC50 collagen-induced platelet aggregation in human PS. Format: cell-based. The protocol:
(§1) Human platelet suspension (PS) was prepared according to the method described previously. Briefly, blood sample, freshly obtained from healthy volunteers who had taken no medications during the preceding 2 weeks, was treated with acid citrate/dextrose (ACD) in a volume ratio of 9:1. After centrifugation at 120 g, 25° C. for 9 min, platelet-rich plasma was transferred into another plastic tube and incubated with heparin (6.4 U/ml) as well as prostaglandin E1 (1 μM). Platelets were spun down by centrifugation at 500 g, 25° C. for 8 min and subsequently washed two times with Tyrode solution (NaH2PO4 0.4 mM; NaCl 136.9 mM; KCl […]; NaHCO3 11.9 mM; CaCl2 2 mM; MgCl2 2.1 mM; glucose 11.1 mM; BSA 3.5 mg/ml; pH 7.35-7.4). The washed platelets were finally suspended in Tyrode's solution and the platelet count was adjusted to 3.75×10^8 platelets/ml. For platelet-rich plasma (PRP) preparation, whole blood was anticoagulated with 1/10 vol of sodium citrate (3.8%, w/v) and centrifuged at 150 g, 25° C. for 9 min.
(§2) Platelet aggregation was measured turbidimetrically with a Lumi-aggregometer (Payton Scientific) at 37° C. under stirring condition (900 rpm). Platelet suspensions were prewarmed to 37° C. for 2 min in a silicone-treated glass cuvette. Nstpbp5185 was added 3 min before the addition of platelet-aggregation inducers. The extent of platelet aggregation was determined by recording the increase of light transmission relative to that of control (maximal aggregation, as 100%) for 6 min after the addition of inducer. The final volume and platelet count for measuring platelet aggregation were 500 μl and 3×10^8/ml, respectively.

Series [2] relates to human platelet suspension. Description: Arachidonic acid-induced platelet aggregation in human platelet suspension. In kind it is cell-based. Conditions: AA 200 μM. The protocol:
as §1, §2

Series [3] deals with human platelet suspension. Description: U46619-induced platelet aggregation in human platelet suspension. Format: cell-based. Conditions: for IC50: Homo sapiens; for shift of the concentration-response curve of U46619: nstpbp5185 2 and 3 μM with indomethacin, Ctkf6f2 1 μM; for U46619 needed to induce the full aggregation: platelets pretreated with 1 μM compound.
For series [4], the system named is human platelet-rich plasma. As to the kind of experiment: Collagen-induced platelet aggregation in human platelet-rich plasma. In kind it is cell-based. The protocol: as §1, §2
The subject of series [5] is human platelets. Description: Platelet [Ca2+]i mobilization by Fura 2-AM fluorescence. To be noted: for collagen-evoked increase of [Ca2+]i: collagen 10 μg/ml, Fura-2-loaded platelets. In kind it is cell-based. The protocol: After centrifugating platelet-rich plasma at 500 g, 25° C. for 8 min, isolated platelets were resuspended in Ca^2+-free Tyrode solution. The platelet suspensions were protected from light and incubated with Fura 2-AM (5 μM) at 37° C. for 30 min. Human platelets were then prepared as described previously. The washed platelet count was adjusted to 3-4.5×10^8 platelets/ml. Finally, the external Ca^2+ concentration of the platelet suspensions was adjusted to 1 mM. The rise in [Ca^2+]i was measured using a fluorescence spectrophotometer (CAF 110, Jasco, Japan) at excitation wavelengths of 340 and 380 nm, and an emission wavelength of 500 nm. [Ca^2+]i was calculated from the fluorescence, using 224 nM as the Ca^2+-Fura 2 dissociation constant.

Series [6] has as its system human platelets. Description: Flow cytometric analysis of P-selectin expression. Format: cell-based. Conditions: for U46619-induced P-selectin expression: U46619 1 μM; for collagen-induced P-selectin expression: collagen 10 μg/ml. The protocol: […] Then the sample was further incubated with FITC-labeled anti-CD62P in the dark at room temperature. Prior to analysis, the volume was adjusted to 1 mL/tube with Tyrode's solution. The suspensions were immediately assayed by fluorescence activated cell sorter (Becton-Dickinson, FACScan System, San Joe, Calif.) using excitation and emission wavelength of 488 and 525 nm, respectively. Data were collected from 10000 platelets per experimental group. The level of P-selectin expression was expressed as mean fluorescence intensity.

Series [7] deals with human platelet suspension. Description: Thromboxane B2 formation in human platelet suspension. In kind it is cell-based. The protocol:
Human platelet suspension (3.75×10^8/ml) was preincubated in the presence or absence of nstpbp5185 or aspirin for 3 min before the addition of collagen or AA. Six minutes after the addition of agonist, […] indomethacin and 2 mM EDTA were added to the reaction suspension. After centrifugation in an Eppendorf centrifuge at 14,000 g for 2 min, the thromboxane B2 (TXB2), the stable metabolite of TXA2, levels of the supernatant were measured using a competitive enzyme-immuno assay (EIA) kit according to the instructions of the manufacturer.

A further series relates to mice. As to the kind of experiment: Pulmonary thromboembolism caused by collagen/epinephrine. Format: in vivo. Conditions: for survival rate after 1 day: n=4. The protocol: (A) Mice were i.v. injected with vehicle (DMSO as control), nstpbp5185 (10 μg/g) or Ctkf6f2 (10 μg/g), then injected with collagen/epinephrine to induce pulmonary embolism model. After the onset of respiratory arrest, lungs were excised. […] Histologic analysis was performed on H&E-stained sections of lung from each mouse. […] (B) Survival rate of mice injected with DMSO as control, nstpbp5185 (10 μg/g) or Ctkf6f2 (10 μg/g) after induction of pulmonary thromboembolism in 30 min, 1 hr and 24 hr (n=4). (C) Representative images of lung isolated after the onset of respiratory arrest, but while the heart was still beating, 0.5 ml of Evans blue solution was injected into the heart. Lungs were excised, and photographed.
Male mice (ICR, 25±3 g) received collagen (0.6 μg/g) plus epinephrine (0.2 μg/g) by tail vein injection. While the respiration is very weak and the heart was still beating, 0.5 mL of Evans blue solution (1% in saline; Sigma) was injected into the heart. Lungs were excised, photographed and fixed with paraldehyde, embedded into paraffin, and sectioned. Histological analysis was performed on hematoxylin and eosin-stained (H&E) sections of lung from each mouse. Nstpbp5185 (10 μg/g) or DMSO vehicle was intravenously given prior to collagen/epinephrine. Mortality after challenge was calculated as percentage of death after injection of collagen/epinephrine, the end time will be […].

The test system of series [8] is receptor tyrosine kinases. Description: Receptor tyrosine kinases safety profile. Details: dose or concentration left out as unconfirmed. Format: biochemical. The protocol:
These kinases or enzymatic assays were performed by MDS according to the standardized methods

Where [9] appears, read: Platelet, U46619 1 μM, washed human platelets, read-out: IC50 U46619-induced aggregation.
The mark [10] stands for this setting: Homo sapiens, Platelet, collagen 10 μg/ml, read-out: inhibition of TXB2 compared to the control.

Consider `Cc1ccc(-c2nc3ccc(F)cc3n2Cc2cccc(F)c2)o1` [Ctkf6f2, 6-fluoro-1-(3-fluorobenzyl)-2-(5-methyl-2-furyl)benzimidazole], for which the IC50 in [1] came out at 3.4 ± 0.62 µM; in [2] it was 3.2 ± 0.99 µM; in series [3] (setting [9]), 1.17 ± 0.23 µM; in [4] (Homo sapiens, collagen 5 μg/ml, read-out: IC50 collagen-induced aggregation in platelet-rich plasma) it was 31.3 ± 7.68 µM. Besides, the inhibition at 1 µM in series [3] (Platelet, human washed platelets, 1 μM compound, U46619 1 μM) amounted to 50%; in series [7] (setting [10]) it was 43.9%. Besides, the “shift of the concentration-response curve of U46619” value in [3] is reported as “right-shift”. In series [3], the “U46619 needed to induce the full aggregation” value is on record as “around 2 μM”. Also, the U46619-induced calcium mobilization result in the series with human platelets [5] (U46619 1 μM, 1 μM-3 μM compound) was “markedly inhibited”. The “collagen-evoked increase of [Ca2+]i” value in the series with human platelets [5] was “concentration-dependently inhibited”. Moreover, the “U46619-induced P-selectin expression” value in the series with human platelets [6] is “decreased”. In addition, the “collagen-induced P-selectin expression” value with human platelets [6] is on record as “decreased”. For the same molecule, the inhibition at 0.3 µM in series [7] (Homo sapiens, Platelet, collagen 10 μg/ml, 0.3 μM, read-out: inhibition of TXB2 compared to the control) turned out to be 33%. In addition, the inhibition at 3 µM in series [7] (Homo sapiens, Platelet, collagen 10 μg/ml, 3 μM, read-out: inhibition of TXB2 compared to the control) was found to be 64.7%. For the same molecule, in series [7] (Homo sapiens, Platelet, collagen 10 μg/ml, 10 μM, read-out: inhibition of TXB2 compared to the control), the inhibition at 10 µM amounted to 73.5%. For the same molecule, in the series on mice (10 μg/g i.v.), the “emboli in lung sections compared with 5185” value was “smaller emboli”. In the series on mice (10 μg/g i.v.), the “survival rate after 1 day” value was determined as 100%. The “effects on receptor tyrosine kinases” value in series [8] is reported as “little effects”.

With `Cc1ccc(-c2nc3ccccc3n2Cc2ccccc2)o1` [Example 6, 1-Benzyl-2-(5-methyl-2-furyl)benzimidazole], the IC50 in series [1] is roughly 1.3 µM; in series [2] it was 3.9 ± 0.2 µM; in [3] (setting [9]), roughly 2.5 µM; in [3] (Platelet, U46619-induced aggregation, platelet suspension, read-out: P.S(U46619) IC50), 2.45 µM; in [4] (human PRP, data not shown, read-out: IC50 collagen-induced platelet aggregation in human PRP) it was 64.2 ± 2.5 µM. The “% inhibition collagen” value in series [1] (human platelet suspension, preliminary, compound concentration not given) is given as 71.2 (n = 2) %. In addition, the “inhibition of aggregation induced by U46619” value in series [3] (human washed platelets, 1 μM compound, U46619 1 μM) is reported as “could not effectively inhibit”. Moreover, the “shift of the concentration-response curve of U46619” value in [3] was “right-shift”. In addition, in [3], the “U46619 needed to induce the full aggregation” value stood at 0.5 µM. Moreover, the “collagen-evoked increase of [Ca2+]i” value in the series with human platelets [5] is “markedly inhibited”. The “thrombin-evoked increase of [Ca2+]i” value in the series with human platelets [5] (thrombin 0.1 U/ml, even at 60 μM) is “no effect”. The “U46619-induced P-selectin expression” value with human platelets [6] is “significantly reduced”. In addition, the “collagen-induced P-selectin expression” value in the series with human platelets [6] is recorded as “concentration-dependently reduced to baseline”. Also, the inhibition at 1 µM in [7] (setting [10]) was determined as 52.6%. Also, the “TXB2 generation of AA-stimulated platelets” value in series [7] (arachidonic acid 200 μM, 0.7, 2 and 6 μM) was “concentration-dependently inhibited”. Moreover, the “TXB2 generation of collagen-stimulated platelets” value in series [7] (collagen 10 μg/ml, 0.7, 2 and 6 μM) was “concentration-dependently inhibited”. The “survival rate after 1 day” value in the series with mice (10 μg/g i.v.) came to 100%. Moreover, the “mortality after collagen/epinephrine within 1 hr” value in the series on mice (5 and 10 μg g^−1, intravenous injection) is reported as “completely protected mice from death”. The “microemboli in lung sections” value in the series with mice (nstpbp5185-treated mice vs control) is “few microemboli”. Also, the “effects on receptor tyrosine kinases” value in series [8] is given as “little effects”.
